According to patent publication US8816085B2 (Takeda GmbH, priority 2009, dated 2014):

The compounds below were run against T1, PDE5A1 (human PDE5 from platelets) (Homo sapiens, UniProt O76074) (assay: Inhibition of type 5 phosphodiesterase (PDE5) activity, modified SPA test). Details: PDE5-containing human platelet lysate, 0.5 μM cGMP, value classes, read-out: PDE5A1 inhibitory values [measured as −logIC50 (mol/l)] (converted).
T1 construct: from tissue; host or cells: platelets from fresh blood of human donors (10,000 g supernatant of sonified platelets)
Type: biochemical
Method in brief: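 Enzyme source: human platelet lysate (10,000 g supernatant), with 1 μM motapizone and 10 nM PDE2 inhibitor present. SPA format in 20 mM Tris pH 7.4, 5 mM Mg2+, 0.5 μM cGMP with [3H]cGMP tracer; 5 min preincubation at 37 °C, 15 min reaction, stopped with IBMX-containing beads. IC50 by non-linear regression.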

`COCC(=O)N[C@H]1CC[C@@H](NC(=O)c2c(C)[nH]c3c(-c4cc(OC)c(F)cc4OCC4CC4)ccnc23)CC1` [Example E69, 7-[2-(Cyclopropylmethoxy)-4-fluoro-5-methoxyphenyl]-N-{cis-4-[(methoxyacetyl)amino]cyclohexyl}-2-methyl-1H-pyrrolo[3,2-b]pyridine-3-carboxamide] and `COCC(=O)N[C@H]1CC[C@H](NC(=O)c2c(C)[nH]c3c(-c4cc(F)c(OC)cc4OCC4CC4)ccnc23)CC1` [Example E81, 7-[2-(Cyclopropylmethoxy)-5-fluoro-4-methoxyphenyl]-N-{trans-4-[(methoxyacetyl)amino]cyclohexyl}-2-methyl-1H-pyrrolo[3,2-b]pyridine-3-carboxamide] cannot be ordered by IC50: < 1 nM for the first, < 1 nM for the second.

`COc1cc(OCC2CC2)c(-c2ccnc3c(C(=O)NC4CCN(C(C)=O)CC4)c(C)[nH]c23)cc1F` [Example E76, N-(1-Acetylpiperidin-4-yl)-7-[2-(cyclopropylmethoxy)-5-fluoro-4-methoxyphenyl]-2-methyl-1H-pyrrolo[3,2-b]pyridine-3-carboxamide] and `CCC(=O)N1CCC(NC(=O)c2c(C)[nH]c3c(-c4cc(F)c(OC)cc4OCC4CC4)ccnc23)CC1` [Example E77, 7-[2-(Cyclopropylmethoxy)-5-fluoro-4-methoxyphenyl]-2-methyl-N-(1-propionylpiperidin-4-yl)-1H-pyrrolo[3,2-b]pyridine-3-carboxamide] cannot be ordered by IC50: < 1 nM for the first, < 1 nM for the second.

`COCC(=O)N1CCC(NC(=O)c2c(C)[nH]c3c(-c4cc(F)c(OC)cc4OCC4CC4)ccnc23)CC1` [Example E78, 7-[2-(Cyclopropylmethoxy)-5-fluoro-4-methoxyphenyl]-N-[1-(methoxyacetyl)piperidin-4-yl]-2-methyl-1H-pyrrolo[3,2-b]pyridine-3-carboxamide] and `COCC(=O)N[C@H]1CC[C@@H](NC(=O)c2c(C)[nH]c3c(-c4cc(F)c(OC)cc4OCC4CC4)ccnc23)CC1` [Example E84, 7-[2-(Cyclopropylmethoxy)-5-fluoro-4-methoxyphenyl]-N-{cis-4-[(methoxyacetyl)amino]cyclohexyl}-2-methyl-1H-pyrrolo[3,2-b]pyridine-3-carboxamide] cannot be ordered by IC50: < 1 nM for the first, < 1 nM for the second.

`COc1cc(OCC2CC2)c(-c2ccnc3c(C(=O)N[C@H]4CC[C@H](NC(C)=O)CC4)c(C)[nH]c23)cc1F` [Example E79, N-(trans-4-Acetamidocyclohexyl)-7-[2-(cyclopropylmethoxy)-5-fluoro-4-methoxyphenyl]-2-methyl-1H-pyrrolo[3,2-b]pyridine-3-carboxamide] and `COc1cc(OCC2CC2)c(-c2ccnc3c(C(=O)N[C@H]4CC[C@@H](NC(C)=O)CC4)c(C)[nH]c23)cc1F` [Example E82, N-(cis-4-Acetamidocyclohexyl)-7-[2-(cyclopropylmethoxy)-5-fluoro-4-methoxyphenyl]-2-methyl-1H-pyrrolo[3,2-b]pyridine-3-carboxamide] cannot be ordered by IC50: < 1 nM for the first, < 1 nM for the second.

`CCC(=O)N[C@H]1CC[C@H](NC(=O)c2c(C)[nH]c3c(-c4cc(F)c(OC)cc4OCC4CC4)ccnc23)CC1` [Example E80, 7-[2-(Cyclopropylmethoxy)-5-fluoro-4-methoxyphenyl]-2-methyl-N-[trans-4-(propionylamino)cyclohexyl]-1H-pyrrolo[3,2-b]pyridine-3-carboxamide] and `CCC(=O)N[C@H]1CC[C@@H](NC(=O)c2c(C)[nH]c3c(-c4cc(F)c(OC)cc4OCC4CC4)ccnc23)CC1` [Example E83, 7-[2-(Cyclopropylmethoxy)-5-fluoro-4-methoxyphenyl]-2-methyl-N-[cis-4-(propionylamino)cyclohexyl]-1H-pyrrolo[3,2-b]pyridine-3-carboxamide] cannot be ordered by IC50: < 1 nM for the first, < 1 nM for the second.

`Cc1[nH]c2c(-c3c(OCC4CC4)ccc4c3OCO4)ccnc2c1C(=O)N[C@H]1CC[C@@H](NC(=O)CO)CC1` [Example F04, 7-[5-(Cyclopropylmethoxy)-1,3-benzodioxol-4-yl]-N-[cis-4-(glycoloylamino)cyclohexyl]-2-methyl-1H-pyrrolo[3,2-b]pyridine-3-carboxamide] and `Cc1[nH]c2c(-c3c(OCC4CC4)ccc4c3OCO4)ccnc2c1C(=O)N[C@H]1CC[C@@H](NC(=O)[C@H](C)O)CC1` [Example F05, 7-[5-(Cyclopropylmethoxy)-1,3-benzodioxol-4-yl]-N-(cis-4-{[(2S)-2-hydroxypropanoyl]amino}cyclohexyl)-2-methyl-1H-pyrrolo[3,2-b]pyridine-3-carboxamide] cannot be ordered by IC50: < 1 nM for the first, < 1 nM for the second.

`Cc1[nH]c2c(-c3ccc(F)cc3OCC3CC3)ccnc2c1C(=O)NC1CCN(C(=O)[C@H](C)O)CC1` [Example F07, 7-[2-(Cyclopropylmethoxy)-4-fluorophenyl]-N-{1-[(2S)-2-hydroxypropanoyl]piperidin-4-yl}-2-methyl-1H-pyrrolo[3,2-b]pyridine-3-carboxamide] and `Cc1[nH]c2c(-c3cc(F)ccc3OCC3CC3)ccnc2c1C(=O)NC1CCN(C(=O)[C@H](C)O)CC1` [Example F13, 7-[2-(Cyclopropylmethoxy)-5-fluorophenyl]-N-{1-[(2S)-2-hydroxypropanoyl]piperidin-4-yl}-2-methyl-1H-pyrrolo[3,2-b]pyridine-3-carboxamide] fall in the same range of IC50: 1 to 10 nM for the first, 1 to 10 nM for the second.

`Cc1[nH]c2c(-c3ccc(F)cc3OCC3CC3)ccnc2c1C(=O)N[C@H]1CC[C@H](NC(=O)CO)CC1` [Example F08, 7-[2-(Cyclopropylmethoxy)-4-fluorophenyl]-N-{trans-4-[(hydroxyacetyl)amino]cyclohexyl}-2-methyl-1H-pyrrolo[3,2-b]pyridine-3-carboxamide] and `Cc1[nH]c2c(-c3ccc(F)cc3OCC3CC3)ccnc2c1C(=O)N[C@H]1CC[C@@H](NC(=O)CO)CC1` [Example F10, 7-[2-(Cyclopropylmethoxy)-4-fluorophenyl]-N-{cis-4-[(hydroxyacetyl)amino]cyclohexyl}-2-methyl-1H-pyrrolo[3,2-b]pyridine-3-carboxamide] fall in the same range of IC50: 1 to 10 nM for the first, 1 to 10 nM for the second.

First: Cc1[nH]c2c(-c3ccc(F)cc3OCC3CC3)ccnc2c1C(=O)N[C@H]1CC[C@H](NC(=O)[C@H](C)O)CC1 [Example F09, 7-[2-(Cyclopropylmethoxy)-4-fluorophenyl]-N-(trans-4-{[(2S)-2-hydroxypropanoyl]amino}cyclohexyl)-2-methyl-1H-pyrrolo[3,2-b]pyridine-3-carboxamide]
Second: Cc1[nH]c2c(-c3ccc(F)cc3OCC3CC3)ccnc2c1C(=O)N[C@H]1CC[C@@H](NC(=O)[C@H](C)O)CC1 [Example F11, 7-[2-(Cyclopropylmethoxy)-4-fluorophenyl]-N-(cis-4-{[(2S)-2-hydroxypropanoyl]amino}cyclohexyl)-2-methyl-1H-pyrrolo[3,2-b]pyridine-3-carboxamide]
The IC50 of the first is lower: < 1 nM for the first, 1 to 10 nM for the second.

Compared with `Cc1[nH]c2c(-c3cc(F)ccc3OCC3CC3)ccnc2c1C(=O)NC1CCN(C(=O)CO)CC1` [Example F12, 7-[2-(Cyclopropylmethoxy)-5-fluorophenyl]-N-[1-(hydroxyacetyl)piperidin-4-yl]-2-methyl-1H-pyrrolo[3,2-b]pyridine-3-carboxamide], `Cc1[nH]c2c(-c3cc(F)ccc3OCC3CC3)ccnc2c1C(=O)N[C@H]1CC[C@H](NC(=O)CO)CC1` [Example F14, 7-[2-(Cyclopropylmethoxy)-5-fluorophenyl]-N-{trans-4-[(hydroxyacetyl)amino]cyclohexyl}-2-methyl-1H-pyrrolo[3,2-b]pyridine-3-carboxamide] is lower in IC50: 1 to 10 nM for the first, < 1 nM for the second.
